Source: the supplement of paper PMC5908809

Legend:
KHYG-1 (IL-2 2.5 ng/mL) [1] = test: percent inhibition of viability; higher = more inhibition; settings: 72 h
[2] = system: normal primary NK cells, pool 2 (3 donors) (IL-2 2.5 ng/mL); test: as above; settings: 72 h
DERL-7 (IL-2 2.5 ng/mL) [3] = test: as above; settings: 72 h
NKL (IL-2 2.5 ng/mL) [4] = test: as above; settings: 72 h
KAI3 (IL-2 2.5 ng/mL) [5] = test: as above; settings: 72 h
NK-92 (IL-2 2.5 ng/mL) [6] = test: as above; settings: 72 h
YT (IL-2 2.5 ng/mL) [7] = test: as above; settings: 72 h
[8] = system: normal primary NK cells, pool 3 (3 donors) (IL-2 2.5 ng/mL); test: as above; settings: 72 h
SNK-6 (IL-2 2.5 ng/mL) [9] = test: as above; settings: 72 h
[10] = system: normal primary NK cells, pool 1 (3 donors), resting (IL-2 0 ng/mL); test: as above; settings: 72 h
IMC-1 (IL-2 20 ng/mL) [11] = test: as above; settings: 72 h
NK-YS (IL-2 2.5 ng/mL) [12] = test: as above; settings: 72 h
[13] = system: normal primary NK cells, pool 1 (3 donors) (IL-2 2.5 ng/mL); test: as above; settings: 72 h
[14] = system: normal NK cells expanded with K562-aAPC; test: drug sensitivity score (DSS) (DSS units); higher = more sensitive; extreme values may be limits of the assay; settings: 72 h; IL-2 2.5 ng/mL
Procedure: (§1)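 Drug sensitivity and resistance testing on K562-aAPC-expanded normal NK cells: 5 concentrations (10-fold steps over a 10,000-fold range), 72 h at 37 °C, viability by CellTiter-Glo normalised to DMSO and benzethonium chloride controls; DSS from the fitted curve.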

KHYG-1 (IL-2 2.5 ng/mL) [15] = test: as above; settings: 72 h
[16] = system: normal primary NK cells, pool 2 (3 donors) (IL-2 2.5 ng/mL); test: as above; settings: 72 h
DERL-7 (IL-2 2.5 ng/mL) [17] = test: as above; settings: 72 h
NKL (IL-2 2.5 ng/mL) [18] = test: as above; settings: 72 h
KAI3 (IL-2 2.5 ng/mL) [19] = test: as above; settings: 72 h
NK-92 (IL-2 2.5 ng/mL) [20] = test: as above; settings: 72 h
YT (IL-2 2.5 ng/mL) [21] = test: as above; settings: 72 h
[22] = system: normal primary NK cells, pool 3 (3 donors) (IL-2 2.5 ng/mL); test: as above; settings: 72 h
SNK-6 (IL-2 2.5 ng/mL) [23] = test: as above; settings: 72 h
[24] = system: normal primary NK cells, pool 1 (3 donors), resting (IL-2 0 ng/mL); test: as above; settings: 72 h
IMC-1 (IL-2 20 ng/mL) [25] = test: as above; settings: 72 h
NK-YS (IL-2 2.5 ng/mL) [26] = test: as above; settings: 72 h
[27] = system: normal primary NK cells, pool 1 (3 donors) (IL-2 2.5 ng/mL); test: as above; settings: 72 h
[28] = system: normal NK cells expanded with K562-aAPC; test: percent inhibition of viability; higher = more inhibition; settings: 72 h, IL-2 2.5 ng/mL
Procedure: as §1

Cn1cc(C2=Nc3cc(NC(=O)C(N)C4CCCCC4)cc4c3C2=CNNC4=O)cn1 (configuration not stated) (max concentration tested 10000 nM)
percent inhibition of viability [%]
Settings	1 nM	10 nM	100 nM	1000 nM	10000 nM
DERL-7 (IL-2 2.5 ng/mL) [3]	-5.54	-1.5	4.6	48.3	97.6
IMC-1 (IL-2 20 ng/mL) [11]	-2.84	-1.7	7.25	99.8	101
KAI3 (IL-2 2.5 ng/mL) [5]	-1.93	-2.44	21.2	93	103
KHYG-1 (IL-2 2.5 ng/mL) [1]	18.4	5.75	32.3	104	107
NK-92 (IL-2 2.5 ng/mL) [6]	3.17	-3.7	17.4	65.2	107
NK-YS (IL-2 2.5 ng/mL) [12]	-0.41	0.42	9.21	75.4	97.2
NKL (IL-2 2.5 ng/mL) [4]	-1.81	2.84	-0.69	61.7	82.7
SNK-6 (IL-2 2.5 ng/mL) [9]	5.64	12.4	25.4	80.5	97.2
YT (IL-2 2.5 ng/mL) [7]	1.41	1.74	10.1	72.6	104
[2]	-14.2	-7.44	-6.63	8.32	85.8
[8]	-13	-2.42	9.48	11.7	76.2
[10]	1.23	-6.26	-15.6	-23.2	9.49
[13]	-1.65	-6.59	-10.1	-4.12	59.9
[28]	-1.76	0.06	11.6	53.4	73.3

Settings	drug sensitivity score
DERL-7 (IL-2 2.5 ng/mL) [17]	11.1
IMC-1 (IL-2 20 ng/mL) [25]	19.1
KAI3 (IL-2 2.5 ng/mL) [19]	19.7
KHYG-1 (IL-2 2.5 ng/mL) [15]	22.6
NK-92 (IL-2 2.5 ng/mL) [20]	14.7
NK-YS (IL-2 2.5 ng/mL) [26]	15.2
NKL (IL-2 2.5 ng/mL) [18]	11.7
SNK-6 (IL-2 2.5 ng/mL) [23]	18
YT (IL-2 2.5 ng/mL) [21]	15
[14]	11.4
[16]	6.1
[22]	6.18
[24]	0
[27]	2.92

COc1cc2c(NC3CCN(C(C)C)CC3)nc(C3CCCCC3)nc2cc1OCCCN1CCCC1 [UNC0638] (max concentration tested 10000 nM)
percent inhibition of viability [%]
Settings	1 nM	10 nM	100 nM	1000 nM	10000 nM
DERL-7 (IL-2 2.5 ng/mL) [3]	2.53	3.85	-3.65	12.8	101
IMC-1 (IL-2 20 ng/mL) [11]	-2.5	-1.52	2.54	4.7	100
KAI3 (IL-2 2.5 ng/mL) [5]	-1.49	2.96	15.3	64.9	107
KHYG-1 (IL-2 2.5 ng/mL) [1]	3.45	-2.32	4.32	6.75	102
NK-92 (IL-2 2.5 ng/mL) [6]	5.67	5.27	21.5	21.4	104
NK-YS (IL-2 2.5 ng/mL) [12]	-0.95	-0.93	1.21	6.18	103
NKL (IL-2 2.5 ng/mL) [4]	-8.37	-2.53	-3.47	10	103
SNK-6 (IL-2 2.5 ng/mL) [9]	-6.73	-2.24	11.7	23.5	101
YT (IL-2 2.5 ng/mL) [7]	-0.28	-1.09	4.71	0.39	102
[2]	-8.36	-2.48	-3.63	1.06	100
[8]	-4.55	-0.2	2.47	-3.99	100
[10]	7.27	-7.21	-5.23	10.6	100
[13]	4.83	-1.29	1.24	-5.62	100
[28]	-0.44	0.89	0.9	3.67	100

Settings	drug sensitivity score
DERL-7 (IL-2 2.5 ng/mL) [17]	7.69
IMC-1 (IL-2 20 ng/mL) [25]	6.26
KAI3 (IL-2 2.5 ng/mL) [19]	14.4
KHYG-1 (IL-2 2.5 ng/mL) [15]	6.72
NK-92 (IL-2 2.5 ng/mL) [20]	8.98
NK-YS (IL-2 2.5 ng/mL) [26]	6.67
NKL (IL-2 2.5 ng/mL) [18]	7.29
SNK-6 (IL-2 2.5 ng/mL) [23]	9.2
YT (IL-2 2.5 ng/mL) [21]	5.79
[14]	6.1
[16]	5.75
[22]	5.3
[24]	7.28
[27]	5.15

CCS(=O)(=O)N1CC(CC#N)(n2cc(-c3ncnc4[nH]ccc34)cn2)C1 [Baricitinib] (max concentration tested 2500 nM)
percent inhibition of viability [%]
Settings	0.25 nM	2.5 nM	25 nM	250 nM	2500 nM
DERL-7 (IL-2 2.5 ng/mL) [3]	2.21	8.22	35.1	77.5	101
IMC-1 (IL-2 20 ng/mL) [11]	-4.87	-4.53	-11.2	16.2	87.2
KAI3 (IL-2 2.5 ng/mL) [5]	4.12	13.4	55.5	95.9	99.2
KHYG-1 (IL-2 2.5 ng/mL) [1]	-8.72	1.48	46.9	106	109
NK-92 (IL-2 2.5 ng/mL) [6]	-7.1	-0.82	23.4	68	97.8
NK-YS (IL-2 2.5 ng/mL) [12]	-8.38	-2.38	20.7	60.4	74.6
NKL (IL-2 2.5 ng/mL) [4]	6.63	24.6	64.2	84.6	103
SNK-6 (IL-2 2.5 ng/mL) [9]	-16.6	-24.9	5.7	64.8	68.9
YT (IL-2 2.5 ng/mL) [7]	-5.41	-0.41	7.96	54.3	86.4
[2]	-1.68	0.38	17.6	60.4	68.1
[8]	2.14	-2.13	9.5	48.8	70.4
[10]	0.1	4.62	4.85	2.89	12.1
[13]	-7.54	2.7	26.4	61.7	74.2
[28]	0.8	2.05	31	89.9	99.7

Settings	drug sensitivity score
DERL-7 (IL-2 2.5 ng/mL) [17]	19
IMC-1 (IL-2 20 ng/mL) [25]	7.47
KAI3 (IL-2 2.5 ng/mL) [19]	24.6
KHYG-1 (IL-2 2.5 ng/mL) [15]	23.9
NK-92 (IL-2 2.5 ng/mL) [20]	15.6
NK-YS (IL-2 2.5 ng/mL) [26]	13.7
NKL (IL-2 2.5 ng/mL) [18]	26.3
SNK-6 (IL-2 2.5 ng/mL) [23]	12.8
YT (IL-2 2.5 ng/mL) [21]	11.6
[14]	20.2
[16]	13.3
[22]	10.4
[24]	0
[27]	14.7
